Reference: patent US9616089B2, “Polymeric synthetic antidote” (Universite de Liege, priority 2013, dated 2017)

What was measured:
[1] = tested on: UFH; assay: Neutralization of UFH in human plasma, aPTT test; format: biochemical; settings: for percentage of neutralization of UFH, mean: antidote 2 μg/mL, plasma spiked with UFH 2 μg/mL, 15 min 37°C
Description: (§1) Activated partial thromboplastin time (aPTT) and anti-Xa activity were measured on the freshly isolated plasma using respectively a coagulometer (BCT; Dade Behring—Siemens) and a Microplate reader (Anthos HT3, type 12600). STA-C.K. Prest*2 kit was used. Coatest kit was used to evaluate the concentration of low molecular weight heparin in blood plasma following the reactions depicted below: LMW Heparin+AT→[LMW Heparin·AT] [LMW Heparin·AT]+FXa(excess)→[LMW Heparin·AT·FXa] 2a. S-2222+FXa→Peptide+pNA (yellow)+FXa(residual) 2b.
All PECs were prepared by addition of 100 μL of heparin (10 μg/mL) to 300 μL of plasma. After a pre-incubation of 5 minutes at 37° C., 100 μL of a stock solution of polymers of formula (I) (10 μg/mL) was added to neutralize heparin. After 15 minutes of interaction 37° C. the aPTT analysis was performed. Anti Xa analysis was evaluated according to a similar procedure, except for the final concentrations of heparin and polymer of formula (I) which were […].
In view to assess the pharmacological activity of the polymers of formula (I) to neutralize the action of UFH, polymers of formula (I) were incubated in normal human plasma previously spiked with heparin, analysing afterwards the remaining coagulation activity of plasma using the activated partial thromboplastin time (aPTT) test. This bioassay was indeed typically used to analyse the functionality of the intrinsic pathway of the blood coagulation, using kaolin as synthetic activator of the coagulation. An incubation of 15 min at 37° C. was respected before measuring the aPPT test. The percentage of heparin neutralization in plasma (FIG. 4) was calculated using two different calibration curves of heparin in function of the group age of the donors. Indeed a difference in heparin sensitivity was noticed with aPPT test as a function of the range of age of human donors. Accordingly, two calibration curves of heparin were used, corresponding to the two categories of blood donors: group 1 (average age: 22 years) and group 2 (average age: 52 years).

[2] = tested on: LMWH; assay: Neutralization of LMWH in human plasma measuring factor Xa (chromogenic Coatest Heparin); format: biochemical; settings: LMWH and antidote 0.4 μg/mL each, human plasma 15 min 37°C
Description: as §1, with “2b. […]” for “2b.”
(§2) The assay method was calibrated using standard solutions that contain 0.1 μg/mL of AT and heparin at concentrations ranging from 0.01 to 0.07 μg/mL in buffer/normal human plasma supplied with the Coatest kit. […] The absorbance was measured at 405 nm. The ability of CLC1 and CLC2 to neutralize the anticoagulant activity of heparin was determined by addition of each polymer to heparin solution, and the assay performed as described above.
The complexation of the synthetic polymers of formula (I) with low molecular weight heparin (LMWH) was assessed in vitro in the same experimental conditions as for UFH, thus using a concentration of heparin and polymers of formula (I) of 0.4 μg/mL. After their incubation of 15 minutes at 37° C., the remaining activity of factor Xa is recorded with the chromogenic assay Coatest Heparin.

[3] = tested on: UFH; assay: Dose-response curve for UFH neutralization in human blood plasma, aPTT bioassay; format: biochemical; settings: UFH 2 μg/mL in plasma, polymer 1 to 3 μg/mL
Description: In view to assess a possible difference in affinity between polymers of formula (I) and heparin versus protamine/heparin, dose-response curves were established, corresponding to a progressive titration of heparin action by increasing concentration of the polymers of formula (I) with aPPT bioassay (FIG. 5). This in vitro study was conducted adopting a fixed plasma concentration of UFH of 2 μg/mL added before the incubation with the polymers of formula (I). The concentration of the polymers of formula (I) was varied from 1 to 3 μg/mL. The mean and standard deviations (SD) were calculated from two independent experiments performed on senior blood donors.

[4] = tested on: UFH; assay: Neutralization of UFH in whole blood of patients heparinized in vivo (extracorporeal circulation), aPTT test; format: biochemical, human
Description: In example 10, several (co-)polymers of formula (I), namely two linear homopolymers of PDMAEMA (samples CS023 and CK169) and two copolymers of PDMAEMA and PEO (samples A61 and BA003) were tested for neutralization of UFH injected on human patients subjected to ExtraCorporeal Circulation (ECC) during a cardiovascular surgical operation. According to the general practice in this clinical context, a fixed dose of 3 mg/kg of UFH is administrated to these patients by intravenous injection.
10 min after this dose injection of UFH, 40 ml of whole blood were collected from the patients. In vitro UFH neutralization was conducted less than 1 hour after blood collection adding one of the (co-)polymers listed in Table 7. The concentration of these polymers ranged from 3.4 to 45 μg/mL in whole blood. A special care was taken during the addition of (co-)polymer solutions in view to ensure a rapid and reproducible homogenization of these (co-)polymers in whole human blood (rapid injection of the solution in whole human blood, i.e. in less than 1 s), followed directly by 3 up-and-down aspirations to avoid any risk of local over-concentrations.
After a 15 minutes incubation period performed at 37° C. under lateral agitation the aPTT test was carried out immediately in order to determine the residual UFH activity. The neutralization effectiveness of the different homopolymers and copolymers and of protamine was estimated from the determination of CMax, i.e. the minimal polymer concentration giving rise to a maximum neutralization of UFH. Therapeutic index (Thind) of the (co-)polymers was established as the drug concentration window giving a pharmacological effect without impairing the coagulation pathways. The mean and standard deviations corresponding to these 3 parameters were calculated from 4 independent experiments performed on senior blood patients.

[5] = tested on: UFH; assay: Dose-response UFH neutralization in whole human blood, aPTT test; format: biochemical; settings: Table 4, UFH 2 μg/mL whole blood
Description: In Example 9 several (co-)polymers of formula (I) were tested for neutralization of UFH in whole blood. Dose-response curves were established adopting a fixed concentration of 2 μg/mL UFH added in whole blood collected on sodium citrate. Five minutes after this preconditioning step, UFH neutralization was conducted by adding one of the (co-)polymers listed in Table 4 to 6. The concentration of these polymers was varied from 0.5 to 4 μg/mL in—whole blood. A special care was taken during the addition of the (co-)polymer solution in view to assure a rapid and reproducible homogenization of this solution in whole blood (rapid injection of solution in whole blood, i.e. in less than 1 s), followed directly by 3 up-and-down aspirations to avoid any risk of local over-concentrations. The total dilution arising from the UHF and polymer solutions represents only 10% to avoid any interference with coagulation pathways.
After a 15 minutes incubation period performed at 37° C. under lateral agitation the aPTT test was carried out immediately afterwards in order to determine the residual UFH activity. […] The mean and standard deviations were calculated from two independent experiments performed on senior blood donors initially collected under sodium citrate.

[6] = tested on: UFH; assay: Neutralization of UFH in human plasma measuring factor Xa (chromogenic Coatest Heparin); format: biochemical; settings: UFH and antidote 0.4 μg/mL, human plasma 15 min 37°C
Description: as §1
Where FXa represents factor Xa and S-2222 represents Bz-Ile-Glu-(γ-OR)-Gly-Arg-pNA (CA: 59068-47-2) (SEQ ID No. 1), a chromogenic substrate cleaved by free FXa to peptide (Bz-Ile-Glu-(γ-OR)-Gly-Arg (SEQ ID No. 2)) and pNA (p-nitroaniline). AT represents antithrombin. Heparin binds to AT, causing a change in the conformation of AT to a form that binds to and sequesters the activity of FXa. Addition of a peptide that competes with AT for heparin will increase the concentration of free FXa. Thus, restoration of the activity of FXa, as indicated by the amount of S-2222 converted to peptide and pNA, provides a measure of the ability of a peptide to neutralize the anticoagulant activity of heparin (provided in technical sheet of Instrumentation Laboratory).
as §2, with “kit. The standard solutions were incubated at 37° C. for 3-4 minutes, after which 100 μL of bovine factor Xa (0.71 nkat) were added to 200 μL of each standard solution. The mixtures were incubated at 37° C. for 30 sec, after which 200 μL of S-2222 (0.2 μmol, 37° C.) were added and the reaction mixtures were incubated at 37° C. for exactly 3 minutes.” for “kit.”, “above. […]” for “above.”

Question: What does the source list for Protamine?
Answer: percentage of neutralization of heparin ([1]; 15 minutes after addition of the polymers, human plasma (FIG. 4)): 75%; percentage of neutralization of UFH, mean ([1]; Group 1 donors (average age 22 years)): 75.0%; percentage of neutralization of UFH, mean ([1]; Group 2 donors (average age 52 years)): 76.1%; percentage of inhibition of factor Xa (inhibition of heparin), mean [2]: 31.0%; concentration at the maximum of the heparin neutralization curve [3]: around 1.6 μg/mL; aPTT at CMax ([4]; blood of patients given 3 mg/kg UFH): 42.7 s; CMax ([4]; minimal polymer concentration giving maximum neutralization of UFH, patients given 3 mg/kg UFH): 22.5 µg/mL; aPTT response ([4]; protamine concentration of 45 μg/mL): below 70 s; CMax ([5]; minimal polymer concentration giving saturation in UFH neutralization): 3.00 µg/mL; IC50 ([5]; polymer concentration leading to 50% of maximal capacity to neutralize UFH): 1.05 µg/mL; percentage of inhibition of factor Xa, mean ([6]; Test number 1): 88.1%; percentage of inhibition of factor Xa, mean ([6]; Test number 2): 100.0%; mean inhibition of factor Xa ([6]; mean of two independent experiments): 94.0%
